The values below come from PMC10714399, “Open Source Antibiotics: Simple Diarylimidazoles Are Potent against Methicillin-Resistant Staphylococcus aureus” (ACS Infectious Diseases, 2023).

Converted amounts (≈) assume the structure as drawn.

For one data set, the system named is human red blood cells. It is filed as cell-based. The settings on record: red cells of human, 20 h. As to the method:
(§1) The absorbance was measured using a Tecan M1000 Pro monochromator plate reader.
(1 picture or pasted object on this page, not shown here)

Data set [1] deals with TGF-β1-induced fibronectin mRNA formation. Details: method as in earlier work. The note with it: cited from earlier work.
On the set-up of data set [2]: method as in earlier work. The note with it: 48 h XTT assay; read-out: CC50, cytotoxicity; cited from earlier work. A general note: Tetrazolium assays rely on reduction of a dye to a coloured formazan, in cell work by metabolically active cells.
Data set [3] deals with transforming growth factor β1 (TGF-β1) type I receptor (ALK5). More on the design: method as in earlier work. The settings on record: read-out: IC50 against ALK5; cited from earlier work.
A further data set concerns p38 kinase. More on the design: method as in earlier work. The settings on record: cited from earlier work.
Another data set deals with molecular beacon DNA. Briefly: DNA binding assay (molecular beacon melt curve). The settings on record: compound 0-5 μM, DNA 400 nM. The source says: An attempt to characterize the mechanism of toxicity led to testing compounds’ interactions with DNA molecular beacons, which are short strands of DNA tagged with a donor–acceptor pair of fluorophores. The proximity between the fluorophores when the DNA strand is correctly folded results in no fluorescence from the donor; should a compound interfere with DNA folding, a change in the melting temperature will be observed.
A molecular beacon DNA sequence [FAM] CGTATATATATATTTTTATATATATACG [TAM] (Eurofin Genomics, Germany) labeled with fluorescein–tetramethylrhodamine donor–acceptor pair was dissolved in nuclease-free water at 100 μM, aliquoted, and kept frozen at −20 °C.
A working 2 μM DNA solution and compound dilution at 2 and 20 μM in hybridization buffer (10 mM Tris, 1 mM EDTA, 50 mM NaCl, 1.5 mM MgCl2 pH 8) was made. DNA was annealed by heating up to 95 °C on a heat block and allowing to cool down to room temperature. […]
Measurements on the prepared plates were made on an Applied Biosystems 7500/7500 FastReal-Time PCR System (ThermoFisher, UK). A standard melt curve experiment was setup where temperature was ramped up from 15 to 90 °C at a 1% step gradient and fluorescence was monitored for filters 1 (FAM) and 3 (TAMRA). Fluorescence first derivatives against temperature were exported to Microsoft Excel and peak fitting was done using Origin 2022B.

The nature of a further data set: in vitro. Format: cell-based. The note with it: human. As for the experimental part:
HEK293 cells were counted manually in a Neubauer haemocytometer and then plated in the 384-well plates containing the compounds to give a density of 5000 cells/well in a final volume of 50 µL. DMEM supplemented with 10% FBS was used as growth media and the cells were incubated together with the compounds for 20 h at 37 °C in 5% CO2.
Cytotoxicity (or cell viability) was measured by fluorescence, ex: 560/10 nm, em: 590/10 nm (F560/590), after addition of 5 µL of 25 µg/mL resazurin (2.3 µg/mL final concentration) and after incubation for further 3 h at 37 °C in 5% CO2. The fluorescence intensity was measured using a Tecan M1000 Pro monochromator plate reader, using automatic gain calculation. […]
Human whole blood was washed three times with 3 volumes of 0.9% NaCl and then resuspended in same to a concentration of 0.5 x 10^8 cells/mL, as determined by manual cell count in a Neubauer haemocytometer. […]
Haemolysis was determined by measuring the supernatant absorbance at […] (OD405).
as §1
HC10 and HC50 (concentration at 10% and 50% haemolysis, respectively) were calculated by curve fitting the inhibition values vs. log(concentration) using a sigmoidal dose-response function with variable fitting values for top, bottom and slope. […]
Reading Plates - Haemolysis Clear 384w Corning 3680 […]

Data set [4] in a line: HEK293 toxicity, 96-well dose-response (UCL; MTT or resazurin, with or without recovery). It is filed as cell-based, human. The note with it: human, HEK293 cells; across protocol variations (recovery yes/no, MTT/resazurin); read-out: CC50 HEK293. As to the method: The importance of balancing potency vs MRSA and cytotoxicity led us to examine a subset of compounds more thoroughly for toxicity against human embryonic kidney cell line HEK293. […] Dmax is a parameter that quantifies toxicity at the highest tested concentration (32 μg/mL for all compounds), calculated as reciprocal percentage of viable cells (100 – viability%), where cells either were allowed to recover or viability was measured immediately after treatment. […] Our efforts focused on trying to replicate the original toxicity experiments (by CO-ADD) with tamoxifen using a protocol modified for use with 96-well plates. Given the variability of protocols and results in the literature,[28] it was important to compare with a standard protocol we have reliably used in our own laboratories.[29]−[33] […] Truly “non-toxic” compounds might be expected to show Dmax < 50% for all experiment variations, e.g., 861. […] A large spread of Dmax values comparing recovery and non-recovery conditions larger than 20% is perhaps indicative of a mechanism of toxicity that persists beyond exposure, i.e., cytotoxic compounds that continue to induce toxicity as cells recover and restart dividing, for example, compounds 865, 870, 871, 980, and 981. […] This variability could be driven by interference of the compounds with the fluorescence readout or resorufin build-up as previously described.[27]
HEK293 cells (ATCC, UK) at passage 32 were a kind gift from Dr. Ben Allsop from the Translational Research Office at University College London. Cells were tested for mycoplasma using a MycoAlert Detection Kit (Lonza, Switzerland) as per manufacturer instructions, frozen stocks were stored in liquid nitrogen, and cells were re-tested whenever a new aliquot was thawed.
Cells were maintained in DMEM (Sigma-Aldrich, UK) supplemented with 10% heat-inactivated FBS (Sigma-Aldrich, UK), 1% GlutaMax (ThermoFisher, UK), and 1% sodium pyruvate (Lonza, UK) without antibiotics in an incubator at 37 °C and 5% CO2. Media was changed every 2 days, and cells were passaged every 3–4 days at a subcultivation ratio of 1:10, by detaching the cells with phenol-free TrypLE Express (ThermoFisher, UK), after washing with HBSS Ca^2+/Mg^2+ (ThermoFisher, UK). Up to 55 passages were used throughout the experiments.
(a) Cell seeding: At subculture, a dilute solution of cells was counted using Trypan Blue (Sigma-Aldrich, UK) and a hemocytometer. Cells were further diluted to 7000 or 50 000 cells/mL for experiments.
For recovery experiments, 700 cells (100 μL) were seeded in 96-well plates and incubated for 48 h while cells reached exponential phase.
For non-recovery experiments, 5000 cells (100 μL) were seeded in 96-well plates and incubated for 48 h while cells reached confluence. This is the same number of cells as per the CO-ADD protocol where 384-well plates were used, but we extended the growth time to 48 h to produce a similar confluency.
Stock solutions were diluted 100 times (to 1% DMSO) to 32 μg/mL in full medium (vortexed briefly) and then serially diluted using a digital pipet (Explorer, Eppendorf, Germany) at a dilution factor of 2 to a final concentration of […].
(c) Dosing experiments: At the specified time after seeding, media was removed from cells, cells were washed with HBSS Ca^2+/Mg^2+ (100 μL), and 100 μL of diluted compounds were added as per Supporting Information - Biology, Figure S4, and incubated for 24 h.
After treatment, solutions were removed, and cells were washed with HBSS Ca^2+/Mg^2+. For non-recovery experiments, viability was determined immediately as described below.
For recovery experiments, fresh media was added to plates (100 μL) and cells were returned to the incubator for another 72 h, after which viability was recorded as described below.
i. MTT assay: 3-[4,5-Dimethylthiazol-2-yl]-2,5-diphenyltetrazolium bromide (MTT) (Sigma-Aldrich, UK) was dissolved in sterile PBS at 5 mg/mL with sonication (20 min), protected from light. […]
(In general: Alamar Blue is a resazurin reagent that responds to reducing activity.)

In the case of `CC[C@H](C)[C@H](NC(=O)CN)C(=O)NCC(=O)N[C@@H](C)C(=O)N[C@H](C(=O)N[C@@H](CC(C)C)C(=O)N[C@@H](CCCCN)C(=O)N[C@H](C(=O)N[C@@H](CC(C)C)C(=O)N[C@H](C(=O)N[C@H](C(=O)NCC(=O)N[C@@H](CC(C)C)C(=O)N1CCC[C@H]1C(=O)N[C@@H](C)C(=O)N[C@@H](CC(C)C)C(=O)N[C@H](C(=O)N[C@@H](CO)C(=O)N[C@@H](Cc1c[nH]c2ccccc12)C(=O)N[C@H](C(=O)N[C@@H](CCCCN)C(=O)N[C@@H](CCCNC(=N)N)C(=O)N[C@@H](CCCCN)C(=O)N[C@@H](CCCNC(=N)N)C(=O)N[C@@H](CCC(N)=O)C(=O)N[C@@H](CCC(N)=O)C(N)=O)[C@@H](C)CC)[C@@H](C)CC)[C@@H](C)O)[C@@H](C)O)C(C)C)C(C)C` [Melittin], in the data set with human red blood cells, the “HC10 (concentration at 10% haemolysis)” value stood at 2.7 µg/mL.
One may read the IC50 as the concentration at which inhibition is half-maximal. Usually CC50 stands for the concentration giving 50% cytotoxicity. On to `NC(=O)c1ccc(-c2nc(-c3ccc4c(c3)OCO4)c(-c3ccccn3)[nH]2)cc1` [SB-431542], for which the IC50 in data set [1] is 50 nM; in data set [3], 94 nM. Further, the half-maximal cytotoxic concentration (CC50) in data set [2] is more than 30000 nM. Further, the “inhibition of p38 kinase” value in the data set on p38 kinase is “no inhibition”.
For `COc1cccc2c1C(=O)c1c(O)c3c(c(O)c1C2=O)C[C@@](O)(C(=O)CO)C[C@@H]3O[C@H]1C[C@H](N)[C@H](O)[C@H](C)O1` [doxorubicin], the “effect on DNA molecular beacon melting temperature” value in the data set on molecular beacon DNA is recorded as “dose–response behavior”.
`CC/C(=C(\c1ccccc1)c1ccc(OCCN(C)C)cc1)c1ccccc1` [tamoxifen, reference compound]: the CC50 at 20 h in “in vitro” turned out to be 9 µg/mL (≈ 24.2 µM). Also, in data set [4], the CC50 at 24 h fell in the range of 5.3 to 15.5 µg/mL (≈ 14.3 to 41.7 µM).
